In ChEMBL document CHEMBL4196036, “Benzomorphan scaffold for opioid analgesics and pharmacological tools development: A comprehensive review” (Eur J Med Chem, 2018):
pEC50, pKi: −log10 of the molar value.

Experiments:
[1] = system: Mus musculus; experiment: Antinociceptive activity in sc dosed ICR mouse after 20 mins by tail flick test; format: functional
[2] = biological target: Mu-type opioid receptor (Macaca mulatta, UniProt Q9MYW9); experiment: Displacement of [3H]DAMGO from MOR in monkey brain cortex membranes; format: cell membranes
Sequence of Mu-type opioid receptor (Macaca mulatta, UniProt Q9MYW9) (Q9MYW9 whole entry): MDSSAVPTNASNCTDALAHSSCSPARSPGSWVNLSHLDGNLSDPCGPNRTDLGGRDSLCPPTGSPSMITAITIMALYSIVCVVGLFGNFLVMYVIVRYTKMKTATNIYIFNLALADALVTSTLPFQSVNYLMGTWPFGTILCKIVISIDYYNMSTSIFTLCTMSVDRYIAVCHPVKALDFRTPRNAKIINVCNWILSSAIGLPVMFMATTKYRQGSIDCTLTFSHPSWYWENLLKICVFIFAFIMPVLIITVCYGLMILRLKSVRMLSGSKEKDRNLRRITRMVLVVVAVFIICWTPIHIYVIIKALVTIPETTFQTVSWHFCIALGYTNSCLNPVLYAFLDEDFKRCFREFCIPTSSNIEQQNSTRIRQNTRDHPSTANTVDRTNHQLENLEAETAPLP

[3] = species: Mus musculus; experiment: Antinociceptive activity in mouse by paraphenylquinone assay; format: functional
[4] = biological target: Kappa-type opioid receptor (Macaca mulatta, UniProt H9FL65); experiment: Displacement of [3H]U69,593 from KOR in monkey brain cortex membranes; format: cell membranes
Sequence of Kappa-type opioid receptor (Macaca mulatta, UniProt H9FL65) (H9FL65 whole entry): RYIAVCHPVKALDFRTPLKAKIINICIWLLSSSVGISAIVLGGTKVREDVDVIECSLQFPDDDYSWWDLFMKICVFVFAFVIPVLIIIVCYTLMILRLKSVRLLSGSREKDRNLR

[5] = biological target: G_PROTEIN_RECEP_F1_2 domain-containing protein (Macaca mulatta, UniProt F7HEV7); experiment: Displacement of [3H]naltrindole from DOR in monkey brain cortex membranes; format: cell membranes
Sequence of G_PROTEIN_RECEP_F1_2 domain-containing protein (Macaca mulatta, UniProt F7HEV7) (F7HEV7 whole entry): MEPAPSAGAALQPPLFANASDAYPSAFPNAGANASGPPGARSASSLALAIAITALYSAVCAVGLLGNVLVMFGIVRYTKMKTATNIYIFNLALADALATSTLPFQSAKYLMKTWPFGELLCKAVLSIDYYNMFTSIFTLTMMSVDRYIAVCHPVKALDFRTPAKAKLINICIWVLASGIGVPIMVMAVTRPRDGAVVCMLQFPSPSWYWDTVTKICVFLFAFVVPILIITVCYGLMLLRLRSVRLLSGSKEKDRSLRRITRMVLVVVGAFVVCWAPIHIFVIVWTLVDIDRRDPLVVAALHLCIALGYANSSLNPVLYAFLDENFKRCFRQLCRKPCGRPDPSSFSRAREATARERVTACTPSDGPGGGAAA

[6] = system: Mus musculus; experiment: Analgesic activity in sc dosed ICR mouse after 30 mins by hot plate test; format: functional; details: 0.5 h
[7] = biological target: T1, Kappa-type opioid receptor (Homo sapiens, UniProt P41145); experiment: Agonist activity at human KOR expressed in HEK293 cell membranes assessed as stimulation of [35S]GTPgammaS binding after 30 mins by scintillation counting method; format: functional
T1 sequence (P41145 whole entry): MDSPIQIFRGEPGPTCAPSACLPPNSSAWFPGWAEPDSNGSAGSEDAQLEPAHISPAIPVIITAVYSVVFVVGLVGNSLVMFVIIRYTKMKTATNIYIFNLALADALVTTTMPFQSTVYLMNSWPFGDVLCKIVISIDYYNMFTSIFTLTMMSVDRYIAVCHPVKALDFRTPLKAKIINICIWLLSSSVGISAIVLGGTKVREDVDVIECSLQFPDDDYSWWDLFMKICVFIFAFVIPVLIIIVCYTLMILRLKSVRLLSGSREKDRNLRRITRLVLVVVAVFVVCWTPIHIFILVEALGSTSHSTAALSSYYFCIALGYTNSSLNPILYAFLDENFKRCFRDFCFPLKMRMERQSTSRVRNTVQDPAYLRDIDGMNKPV

[8] = biological target: T1, Kappa-type opioid receptor; experiment: Agonist activity at human KOR expressed in HEK293 cell membranes assessed as stimulation of [35S]GTPgammaS binding after 30 mins by scintillation counting method relative to control; format: functional
[9] = biological target: T1, Kappa-type opioid receptor; experiment: Displacement of [3H]U69,593 from human KOR expressed in HEK293 cell membranes after 1 hr by scintillation counting method
[10] = biological target: T2, Mu-type opioid receptor (Homo sapiens, UniProt P35372); experiment: Displacement of [3H]-diprenorphine from MOR (unknown origin) after 1 to 2 hrs by scintillation counting method
T2 sequence (P35372 whole entry): as the sequence (Q9MYW9 whole entry) above, with V6A, H19Y, R26P, V119A, S154F, S227T, I293V, D344N counted along it

[11] = biological target: T3, G_PROTEIN_RECEP_F1_2 domain-containing protein (Cavia porcellus, UniProt A0A286XTF2); experiment: Displacement of [3H]Naltrindole from DOR in guinea pig brain membranes after 3 hrs by scintillation counting method; format: cell membranes, Membrane
T3 sequence (A0A286XTF2 whole entry): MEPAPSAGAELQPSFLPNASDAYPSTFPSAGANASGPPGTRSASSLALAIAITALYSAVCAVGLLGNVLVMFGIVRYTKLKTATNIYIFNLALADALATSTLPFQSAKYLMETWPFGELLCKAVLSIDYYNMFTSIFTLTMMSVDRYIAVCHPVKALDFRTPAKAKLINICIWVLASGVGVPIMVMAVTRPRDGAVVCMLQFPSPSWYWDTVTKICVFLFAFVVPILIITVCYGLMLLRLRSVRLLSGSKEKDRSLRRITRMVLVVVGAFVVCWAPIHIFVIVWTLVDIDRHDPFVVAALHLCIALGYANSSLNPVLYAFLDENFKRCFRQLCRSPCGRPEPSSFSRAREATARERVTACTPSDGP

[12] = biological target: T1, Kappa-type opioid receptor; experiment: Binding affinity to KOR (unknown origin)
[13] = biological target: T4, Delta-type opioid receptor (Homo sapiens, UniProt P41143); experiment: Displacement of [3H]naltrindole from DOR (unknown origin) expressed in CHO cell membranes
T4 sequence (P41143 whole entry): as the sequence (F7HEV7 whole entry) above, with A10E, F27C, N29S, K112E, I179V counted along it

[14] = biological target: T2, Mu-type opioid receptor; experiment: Displacement of [3H]DAMGO from MOR (unknown origin) expressed in CHO cell membranes
[15] = biological target: T1, Kappa-type opioid receptor; experiment: Displacement of [3H]U69,593 from KOR (unknown origin) expressed in CHO cell membranes
[16] = species: Homo sapiens; experiment: Selectivity ratio of Ki for DOR (unknown origin) to Ki for KOR (unknown origin)
[17] = species: Homo sapiens; experiment: Selectivity ratio of Ki for MOR (unknown origin) to Ki for KOR (unknown origin)
[18] = system: Mus musculus; experiment: Antinociceptive activity in sc dosed mouse by abdominal constriction assay; format: functional
[19] = biological target: T5, Mu-type opioid receptor (Cavia porcellus, UniProt P97266); experiment: Displacement of [3H]DAMGO from MOR in guinea pig brain membranes after 60 mins by scintillation counting method; format: cell membranes, Membrane
T5 sequence (P97266 whole entry): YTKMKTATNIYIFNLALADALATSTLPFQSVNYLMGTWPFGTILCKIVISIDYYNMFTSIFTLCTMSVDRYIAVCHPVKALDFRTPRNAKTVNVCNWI

[20] = biological target: T6, Kappa-type opioid receptor (Cavia porcellus, UniProt P41144); experiment: Displacement of [3H]U69,593 from KOR in guinea pig brain membranes after 60 mins by scintillation counting method; format: cell membranes, Membrane
T6 sequence (P41144 whole entry): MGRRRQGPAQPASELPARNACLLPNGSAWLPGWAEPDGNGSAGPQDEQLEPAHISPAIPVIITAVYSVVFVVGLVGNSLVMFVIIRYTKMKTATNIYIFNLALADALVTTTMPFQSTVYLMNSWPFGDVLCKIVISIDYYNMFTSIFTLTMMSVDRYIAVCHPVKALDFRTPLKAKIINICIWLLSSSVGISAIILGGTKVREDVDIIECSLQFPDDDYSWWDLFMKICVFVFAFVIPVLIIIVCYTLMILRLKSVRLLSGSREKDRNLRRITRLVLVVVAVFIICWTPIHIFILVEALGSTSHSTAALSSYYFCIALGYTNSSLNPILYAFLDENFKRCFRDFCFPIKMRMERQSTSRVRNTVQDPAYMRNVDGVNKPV

[21] = biological target: T2, Mu-type opioid receptor; experiment: Binding affinity to MOR (unknown origin)
[22] = biological target: T5, Mu-type opioid receptor; experiment: Displacement of [3H]DAMGO from MOR in guinea pig brain membranes; format: cell membranes, Membrane
[23] = biological target: T6, Kappa-type opioid receptor; experiment: Displacement of [3H]U69,593 from KOR in guinea pig brain membranes; format: cell membranes, Membrane
[24] = biological target: T3, G_PROTEIN_RECEP_F1_2 domain-containing protein; experiment: Displacement of [3H]Naltrindole from DOR in guinea pig brain membranes; format: cell membranes, Membrane
[25] = biological target: T4, Delta-type opioid receptor; experiment: Binding affinity to DOR (unknown origin)
[26] = system: Mus musculus; experiment: Antinociceptive activity in sc dosed mouse assessed as inhibition of PPQ-induced stretching response pretreated for 10 mins followed by PPQ treatment measured for 1 min at 10 to 15 mins post PPQ treatment; format: functional

C[C@H]1[C@H]2Cc3ccc(O)cc3[C@@]1(C)CCN2CCC#N
ED50 [1]: 0.3 mg/kg
pKi [2]: 8.01
ED50 [3]: 0.05 mg/kg
pKi [4]: 9.40
pKi [5]: 8.38
ED50 [6]: 0.1 mg/kg

C=CCN1CC[C@]2(C)c3cc(O)ccc3C[C@@H]1[C@@H]2C
pKi [2]: 9.05
ED50 [3]: 0.1 mg/kg
pKi [4]: 9.52
pKi [5]: 8.26

C=CCCN1CC[C@]2(C)c3cc(O)ccc3C[C@@H]1[C@@H]2C
ED50 [1]: 0.05 mg/kg
pKi [2]: 8.68
ED50 [3]: 0.8 mg/kg
pKi [4]: 8.89
pKi [5]: 7.68
ED50 [6]: 0.3 mg/kg

C=CC[N+]1(C)CC[C@]2(C)c3cc(O)ccc3C[C@@H]1[C@@H]2C (some centres undefined)
pEC50 [7]: 6.57
Emax [8]: 27.3%
pKi [9]: 7.99
pKi [10]: 7.25

C[C@H]1[C@H]2Cc3ccc(Nc4ccccc4)cc3[C@@]1(C)CCN2CC1CC1
pKi [11]: 8.28

C[C@H]1[C@H]2Cc3ccc(O)cc3[C@@]1(C)CCN2C[C@@H]1C[C@@]1(C(=O)NCc1ccccc1)c1ccccc1
pKi [12]: 7.46

C[C@H]1[C@H]2Cc3cc4sc(N)nc4cc3[C@@]1(C)CCN2CC1CC1
pKi [13]: 6.03
pKi [14]: 7.32
pKi [15]: 8.17

CCCCC(=N)NCCCCCNC(=O)[C@H](CC(C)C)NC(=O)CNC(=O)[C@@]1(c2ccccc2)C[C@H]1CN1CC[C@]2(C)c3cc(O)ccc3C[C@@H]1[C@@H]2C
Ratio Ki [16]: 408
Ratio Ki [17]: 375
pKi [12]: 8.17
ED50 [18]: 0.88 mg/kg

C#CCCN1CC[C@]2(C)c3cc(O)ccc3C[C@@H]1[C@@H]2C
ED50 [1]: 0.05 mg/kg
pKi [2]: 8.34
ED50 [3]: 0.1 mg/kg
pKi [4]: 8.85
pKi [5]: 8.00
ED50 [6]: 0.04 mg/kg

CC1C2Cc3ccc(Nc4cccnc4)cc3C1(C)CCN2CC1CC1 (racemic)
pKi [19]: 9.19
pKi [11]: 7.68
pKi [20]: 9.30

C[C@H]1[C@H]2Cc3ccc(O)cc3[C@@]1(C)CCN2C[C@@H]1C[C@@]1(CN1CCCCC1)c1ccccc1
pKi [12]: 6.75
pKi [21]: 7.35

C[C@H]1[C@H]2Cc3ccc(NC=O)cc3[C@]1(C)CCN2CC1CC1
pKi [22]: 8.96
pKi [23]: 9.31
pKi [24]: 8.01

CC1C2Cc3ccc(NC=O)cc3C1(C)CCN2CC1CC1 (racemic)
pKi [22]: 8.72

C[C@H]1[C@H]2Cc3ccc(O)cc3[C@@]1(C)CCN2CC1CC1
pKi [11]: 9.24
pKi [20]: 10.28

C[C@H]1[C@H]2Cc3cc4sc(N)nc4cc3[C@@]1(C)CCN2CC1CCC1
pKi [13]: 7.03
pKi [14]: 8.08
pKi [15]: 9.31

CCCCC(=N)NCCCCCCNC(=O)[C@H](CC(C)C)NC(=O)CNC(=O)[C@@]1(c2ccccc2)C[C@H]1CN1CC[C@]2(C)c3cc(O)ccc3C[C@@H]1[C@@H]2C
Ratio Ki [16]: 424
Ratio Ki [17]: 408
pKi [12]: 8.28
ED50 [18]: 1.1 mg/kg

C[C@H]1[C@H]2Cc3ccc(O)cc3[C@@]1(C)CC[N+]2(C)CC1CC1 (some centres undefined)
pEC50 [7]: 7.11
Emax [8]: 50%
pKi [9]: 8.36
pKi [10]: 7.64

CCC12CCN(CC3CC3)C(C(=O)c3ccc(NC=O)cc31)C2C (racemic)
pKi [22]: 8.21

CCC12CCN(CC3CC3)C(C(=O)c3ccc(O)cc31)C2C (racemic)
pKi [25]: 8.47
pKi [11]: 8.47
pKi [21]: 9.11

C[C@H]1[C@H]2Cc3ccc(O)cc3[C@@]1(C)CCN2C[C@@H]1CCCO1
pKi [11]: 8.60

C[C@H]1[C@H]2Cc3ccc(N)cc3[C@@]1(C)CCN2CC1CC1
pKi [11]: 7.92

COc1ccc(Nc2ccc3c(c2)C2(C)CCN(CC4CC4)C(C3)C2C)cc1 (racemic)
pKi [19]: 9.33
pKi [11]: 8.08
pKi [20]: 9.54

CC1C2Cc3ccc(C(N)=O)cc3C1(C)CCN2CC1CC1 (racemic)
pKi [11]: 8.08

C[C@H]1[C@H]2Cc3ccc(O)cc3[C@@]1(C)CCN2CCCC#N
ED50 [1]: 0.4 mg/kg
pKi [2]: 7.64
ED50 [3]: 0.01 mg/kg
pKi [4]: 9.40
pKi [5]: 8.24
ED50 [6]: 1 mg/kg

C[C@H]1[C@H]2C(=O)c3ccc(O)cc3[C@@]1(C)CCN2CC1CCCO1 (some centres undefined)
pKi [25]: < 5.00
pKi [12]: 6.14
pKi [21]: 5.54

CC1C2Cc3ccc(O)cc3C1(C)CCN2CC1CC1 (racemic)
pKi [11]: 8.96
pKi [20]: 9.74

C[C@H]1[C@H]2Cc3ccc(O)cc3[C@@]1(C)CCN2CCCCCCO
ED50 [26]: 1.9 mg/kg
